Test results as given in paper PMC7465886, “4-(N-Alkyl- and -Acyl-amino)-1,2,4-triazole-3-thione Analogs as Metallo-β-Lactamase Inhibitors: Impact of 4-Linker on Potency and Spectrum of Inhibition” (Biomolecules, 2020).
Where two headings read alike, the source gives them in different places.

Tests used:
VIM-2 [1] = target: T1, VIM-2 (Escherichia coli, UniProt Q5U7L7); settings: cited from earlier work; for Ki: Schiff base analogs, read-out: Ki Value VIM-2, hydrazone-like compound (converted)
T1 construct: made in house; host or cells: E. coli BL21(DE3) derivative, pET-9a

IMP-1 [2] = target: T2, IMP-1 (Serratia marcescens, UniProt P52699); parameters: method as in PMID 32937203; settings: cited from earlier work; for Inhibition of IMP-1 (dash in Ki column), corresponding hydrazone-like compound: in parentheses, 100 μM inhibitor; for Ki: value in parentheses, read-out: Ki Value IMP-1, corresponding hydrazone-like compound (converted)
T2 construct: made in house; host or cells: E. coli BL21(DE3) derivative, pET-9a

NDM-1 [3] = target: T3, NDM-1 (Klebsiella pneumoniae, UniProt C7C422); parameters: method as in PMID 32937203; settings: cited from earlier work; for Ki: Schiff base analogs, read-out: Ki Value NDM-1, hydrazone-like compound (converted); for Inhibition of NDM-1 (dash in Ki column), corresponding hydrazone-like compound: in parentheses, 100 μM inhibitor
VIM-2 [4] = target: T1, VIM-2; assay: MBL inhibition, reporter substrate method, VIM-2; assay type: biochemical
Procedure: (§1) Compounds were prepared in DMSO at a final concentration of 50 mM prior to dilution in the assay buffer. The reaction rate was measured as the variation of absorbance observed upon substrate hydrolysis in a UV-Vis spectrophotometer or microplate reader at a wavelength of 300 nm (imipenem, meropenem), 260 nm (cefotaxime), or 482 nm (nitrocefin) and in the presence of a purified MBL enzyme (such as VIM-1, VIM-2, VIM-4, NDM-1, and IMP-1, at a final concentration ranging from 1 to 70 nM).
(§2) These enzymes were overproduced in derivatives of E. coli BL21(DE3) carrying a pET-9 a (IMP-1, VIM-1, VIM-2, and VIM-4) or pET-15 b (NDM-1) vector into which the metallo-β-lactamase-encoding open reading frame was cloned. Bacterial strains were grown in the auto-inducing medium, ZYP-5052, supplemented with 50 μg/mL kanamycin for 24 h at 37 °C [38]. IMP-1, VIM-1, VIM-2, and VIM-4 were purified by ion-exchange and gel filtration chromatography using an AKTA Purifier platform (GE Healthcare, Uppsala, Sweden) as previously described. NDM-1 (residues 37-270) was produced as an amino-terminal 6 xHis-tag fusion protein and was purified using affinity chromatography. After growth for 26 h at 25 °C, bacterial cells were harvested by centrifugation (10,000× g, 30 min, 4 °C), resuspended in 10 mM HEPES buffer (pH 7.5) containing 0.15 M NaCl (buffer A) in one-fifth of the original culture volume, and lysed by sonication. Cellular debris was removed by centrifugation (12,000× g, 40 min, 4 °C). The clarified sample was loaded on a HisTrap HP column (bed volume, 5 mL; GE Healthcare), followed by a wash step (25 mL) with buffer A containing 20 mM imidazole. Proteins were eluted using buffer A containing 350 mM imidazole. The resulting protein sample was desalted (HiPrep 26/10 Desalting column, GE Healthcare) using 20 mM triethanolamine (pH 7.2) supplemented with 50 μM ZnSO4 and concentrated using an Amicon Ultra-15 (MW cut-off, 10 kDa; Millipore, Burlington, MA, USA). The concentrated sample was loaded on a Superdex 75 prep grade column (XK16/100 column; bed volume, 140 mL; GE Healthcare) and the proteins eluted with buffer A containing 50 μM ZnSO4. The active fractions were pooled and stored at −20 °C. The purity of the protein preparations was estimated >95% by SDS-PAGE analysis. The authenticity of the enzyme preparations was confirmed by electron spray ionization mass spectrometry, as previously described.
(§3) The inhibition constants (Ki) were determined on the basis of a model of competitive inhibition by analyzing the dependence of the ratio v0/vi (v0, hydrolysis velocity in the absence of inhibitor; vi, hydrolysis velocity in the presence of inhibitor) as a function of [I] as already described. The slope of the plot of v0/vi vs. [I], which corresponds to Km^S/(Km^S + [S])Ki (where Km^S is the Km value of the reporter substrate and [S] its concentration in the reaction mixture) and allowed the calculation of the Ki value. Alternatively, a Dixon plot analysis was carried out by measuring the initial hydrolysis rates in the presence of variable concentrations of inhibitor and substrate. This allowed Ki values to be determined and supported the hypothesis that the various compounds behaved as competitive inhibitors of the various tested enzymes. The assays were performed in triplicate.

NDM-1 [5] = target: T3, NDM-1; assay: MBL inhibition, reporter substrate method, NDM-1; assay type: biochemical
Procedure: as §1, §2, §3

IMP-1 [6] = target: T2, IMP-1; assay: MBL inhibition, reporter substrate method, IMP-1; assay type: biochemical
Procedure: as §1, §2, §3

VIM-1 = target: T4, VIM-1 (Pseudomonas aeruginosa, UniProt A0A0F7KYQ8); assay: MBL inhibition, reporter substrate method, VIM-1; assay type: biochemical; settings: read-out: Inhibition of VIM-1 (dash)
T4 construct: made in house; host or cells: E. coli BL21(DE3) derivative, pET-9a
Procedure: as §1, §2, §3

VIM-4 = target: T5, VIM-4 (Pseudomonas aeruginosa, UniProt A0A0F7KYQ8, S205R); assay: MBL inhibition, reporter substrate method, VIM-4; assay type: biochemical; settings: read-out: Percentage of Inhibition at 100 μM Inhibitor, VIM-4
T5 construct: made in house; host or cells: E. coli BL21(DE3) derivative, pET-9a
Procedure: as §1, §2, §3

[7] = read-out: Inhibition of VIM-2 (dash in Ki column)
[8] = read-out: Inhibition of NDM-1 (dash in Ki column)
[9] = read-out: Inhibition of IMP-1 (dash in Ki column)

T2 sequence (P52699 19-246 limits assumed): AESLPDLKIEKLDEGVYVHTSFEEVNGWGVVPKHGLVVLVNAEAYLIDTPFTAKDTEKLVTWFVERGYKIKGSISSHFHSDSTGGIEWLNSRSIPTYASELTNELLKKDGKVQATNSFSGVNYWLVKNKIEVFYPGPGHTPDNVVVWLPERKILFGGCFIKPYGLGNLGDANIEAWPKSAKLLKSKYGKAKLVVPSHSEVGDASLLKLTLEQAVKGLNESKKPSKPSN
T3 sequence (C7C422 37-270 limits assumed): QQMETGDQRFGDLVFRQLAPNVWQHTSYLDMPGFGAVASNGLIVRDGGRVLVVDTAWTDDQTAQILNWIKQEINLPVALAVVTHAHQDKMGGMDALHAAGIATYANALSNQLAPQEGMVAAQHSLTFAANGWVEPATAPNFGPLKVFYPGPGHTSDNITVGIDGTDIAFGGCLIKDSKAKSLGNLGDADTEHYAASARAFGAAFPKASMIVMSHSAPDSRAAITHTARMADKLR

Question: Which Ki (VIM-2 [1]) does the source give for `O=C(O)c1ccccc1C=Nn1c(CC(c2ccccc2)c2ccccc2)n[nH]c1=S` [hydrazone-like analog of 11] here?
Answer: Its Ki is 25 µM.

Question: And the “Inhibition of IMP-1 (dash in Ki column), corresponding hydrazone-like compound” value (IMP-1 [2])?
Answer: The value was “- (-) (<40% of inhibition in the presence of 100 μM inhibitor)”.

Question: What about the Ki (NDM-1 [3]) of the same compound?
Answer: The Ki was 2.7 µM.

Question: Which Ki (VIM-2 [4]; value in parentheses, analogs of compounds 5 and 6 (this work), read-out: Ki Value VIM-2, corresponding hydrazone-like compound (converted)) does the source give for `O=C(O)c1ccccc1C=Nn1c(Cc2ccccc2)n[nH]c1=S` [hydrazone-like analog of 6] here?
Answer: Its Ki is 3.2 µM.

Question: And the Ki (NDM-1 [5]; value in parentheses, analogs of compounds 5 and 6 (this work), read-out: Ki Value NDM-1, corresponding hydrazone-like compound)?
Answer: The Ki was 42 µM.

Question: And the Ki (IMP-1 [6]; value in parentheses, analogs of compounds 5 and 6 (this work), read-out: Ki Value IMP-1, corresponding hydrazone-like compound)?
Answer: Its Ki is 28 µM.

Question: With `O=C(O)c1ccccc1C(=O)Nn1c(-c2cccc(-c3ccccc3)c2)n[nH]c1=S` [Compound 19] as the compound, how does the inhibition at 100 µM (VIM-2 [4]; read-out: Percentage of Inhibition at 100 μM Inhibitor, VIM-2) read?
Answer: Its inhibition at 100 µM is 36%.

Question: What about the inhibition at 100 µM (NDM-1 [5]; read-out: Percentage of Inhibition at 100 μM Inhibitor, NDM-1) of the same compound?
Answer: Its inhibition at 100 µM is 42%.

Question: And the inhibition at 100 µM (IMP-1 [6]; read-out: Percentage of Inhibition at 100 μM Inhibitor, IMP-1)?
Answer: Its inhibition at 100 µM is 40%.

Question: What about the inhibition at 100 µM (VIM-1) of the same compound?
Answer: Its inhibition at 100 µM is less than 30%.

Question: And the inhibition at 100 µM (VIM-4)?
Answer: Its inhibition at 100 µM is 41%.

Question: For `O=[N+]([O-])c1ccccc1C=Nn1c(CCc2ccccc2)n[nH]c1=S` [hydrazone-like analog of 9], which “Inhibition of VIM-2 (dash in Ki column), corresponding hydrazone-like compound” value (VIM-2 [1]; in parentheses, 100 μM inhibitor) is on record?
Answer: The value was “- (-) (<40% of inhibition in the presence of 100 μM inhibitor)”.

Question: And the “Inhibition of IMP-1 (dash in Ki column), corresponding hydrazone-like compound” value (IMP-1 [2])?
Answer: The value was “- (-) (<40% of inhibition in the presence of 100 μM inhibitor)”.

Question: What about the “Inhibition of NDM-1 (dash in Ki column), corresponding hydrazone-like compound” value (NDM-1 [3]) of the same compound?
Answer: Its value is “- (-) (<40% of inhibition in the presence of 100 μM inhibitor)”.

Question: Which Ki (VIM-2 [1]) does the source give for `O=C(O)c1ccccc1C=Nn1c(-c2ccc3ccccc3c2)n[nH]c1=S` [hydrazone-like analog of 4] here?
Answer: Its Ki is 0.7 µM.

Question: What about the Ki (IMP-1 [2]) of the same compound?
Answer: The Ki was 6.9 µM.

Question: What about the Ki (NDM-1 [3]) of the same compound?
Answer: The Ki was 2.3 µM.

Question: With `O=C(O)c1ccccc1C=Nn1c(-c2cccc(-c3ccccc3)c2)n[nH]c1=S` [hydrazone-like analog of 3] as the compound, how does the Ki (VIM-2 [1]) read?
Answer: Its Ki is 0.2 µM.

Question: What about the Ki (IMP-1 [2]) of the same compound?
Answer: The Ki was 18 µM.

Question: And the Ki (NDM-1 [3])?
Answer: The Ki was 4.2 µM.

Question: With `O=C(O)c1ccc(CNn2c(CCc3ccccc3)n[nH]c2=S)cc1` [Compound 10] as the compound, how does the inhibition at 100 µM (VIM-2 [4]; [7]) read?
Answer: The inhibition at 100 µM was less than 40%.

Question: What about the inhibition at 100 µM (NDM-1 [5]; [8]) of the same compound?
Answer: Its inhibition at 100 µM is less than 40%.

Question: What about the inhibition at 100 µM (IMP-1 [6]; [9]) of the same compound?
Answer: The inhibition at 100 µM was less than 40%.

Question: Which inhibition at 100 µM (VIM-2 [4]; [7]) does the source give for `O=[N+]([O-])c1ccccc1CNn1c(CCc2ccccc2)n[nH]c1=S` [Compound 9] here?
Answer: Its inhibition at 100 µM is less than 40%.

Question: And the inhibition at 100 µM (NDM-1 [5]; [8])?
Answer: The inhibition at 100 µM was less than 40%.

Question: What about the inhibition at 100 µM (IMP-1 [6]; [9]) of the same compound?
Answer: Its inhibition at 100 µM is less than 40%.

Question: With `Cc1ccccc1-c1n[nH]c(=S)n1N=Cc1ccccc1C(=O)O` [hydrazone-like analog of 2] as the compound, how does the Ki (VIM-2 [1]) read?
Answer: Its Ki is 3 µM.

Question: What about the Ki (IMP-1 [2]) of the same compound?
Answer: Its Ki is 58 µM.

Question: What about the “Inhibition of NDM-1 (dash in Ki column), corresponding hydrazone-like compound” value (NDM-1 [3]) of the same compound?
Answer: Its value is “- (-) (<40% of inhibition in the presence of 100 μM inhibitor)”.

Question: Which inhibition at 100 µM (VIM-2 [4]; [7]) does the source give for `O=C(O)c1ccccc1CNn1c(-c2cc3ccccc3[nH]2)n[nH]c1=S` [Compound 5] here?
Answer: Its inhibition at 100 µM is less than 40%.

Question: And the inhibition at 100 µM (NDM-1 [5]; [8])?
Answer: The inhibition at 100 µM was less than 40%.

Question: And the inhibition at 100 µM (IMP-1 [6]; [9])?
Answer: The inhibition at 100 µM was less than 40%.

Question: With `O=C(O)c1ccccc1C=Nn1c(Cc2ccc3ccccc3c2)n[nH]c1=S` [hydrazone-like analog of 7] as the compound, how does the Ki (VIM-2 [1]) read?
Answer: Its Ki is 2.4 µM.

Question: What about the Ki (IMP-1 [2]) of the same compound?
Answer: The Ki was 34 µM.

Question: What about the Ki (NDM-1 [3]) of the same compound?
Answer: The Ki was 1.6 µM.
